Assay results taken from paper PMC8834866, “2-Acetamido-2-deoxy-D-glucono-1,5-lactone Sulfonylhydrazones: Synthesis and Evaluation as Inhibitors of Human OGA and HexB Enzymes” (International Journal of Molecular Sciences, 2022).
“And” between values parts separate entries of the source, which are not always exact repeats. Equal entries are not always repeated.

Legend:
[1] = target: OGA; conditions: cited from earlier work
[2] = target: T1, hOGA (Homo sapiens, UniProt O60502); experiment: hOGA inhibition, 4-MU-GlcNAc fluorescent substrate, Dixon plots (competitive model); type: biochemical; conditions: for Ki(hHexB)/Ki(hOGA): ratio defines selectivity towards hOGA; for Ki: recombinant hOGA, 4-MU-GlcNAc, pH 7.5, 37 °C
T1 construct: The gene construct encoding the full-length human OGA fused to N-terminal His6-tag; His6 (N); made in house
T1 sequence (O60502 1-916): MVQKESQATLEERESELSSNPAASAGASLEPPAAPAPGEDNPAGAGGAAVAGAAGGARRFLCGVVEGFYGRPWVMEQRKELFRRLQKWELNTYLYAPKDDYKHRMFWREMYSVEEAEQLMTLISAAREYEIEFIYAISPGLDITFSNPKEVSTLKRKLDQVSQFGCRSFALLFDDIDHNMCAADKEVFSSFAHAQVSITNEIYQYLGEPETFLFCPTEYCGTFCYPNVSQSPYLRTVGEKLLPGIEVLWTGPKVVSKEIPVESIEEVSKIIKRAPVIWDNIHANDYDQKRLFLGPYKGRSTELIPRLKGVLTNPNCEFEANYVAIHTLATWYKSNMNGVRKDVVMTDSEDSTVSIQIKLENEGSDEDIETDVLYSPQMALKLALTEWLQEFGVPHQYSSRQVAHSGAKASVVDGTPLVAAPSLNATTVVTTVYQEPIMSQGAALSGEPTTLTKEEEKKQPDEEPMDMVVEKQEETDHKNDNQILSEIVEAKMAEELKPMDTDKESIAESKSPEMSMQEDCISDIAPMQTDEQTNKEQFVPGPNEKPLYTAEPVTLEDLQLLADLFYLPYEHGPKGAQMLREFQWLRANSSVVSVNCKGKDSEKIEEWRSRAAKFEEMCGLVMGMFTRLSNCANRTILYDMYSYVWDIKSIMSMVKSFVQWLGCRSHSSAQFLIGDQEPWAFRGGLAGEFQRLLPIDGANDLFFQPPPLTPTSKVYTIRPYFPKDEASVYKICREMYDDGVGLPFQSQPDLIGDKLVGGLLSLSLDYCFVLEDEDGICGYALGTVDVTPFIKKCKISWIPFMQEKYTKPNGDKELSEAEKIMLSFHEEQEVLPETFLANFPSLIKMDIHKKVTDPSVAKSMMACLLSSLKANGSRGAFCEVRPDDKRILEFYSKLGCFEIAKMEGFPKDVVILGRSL
Method: (§1) The inhibitory potency of compounds 5a–f was evaluated against recombinant hOGA and hHexB enzymes. The enzymes were prepared and purified as described previously. For inhibition of hOGA, fluorescent 4-MU-GlcNAc was used as the substrate. […] In the case of inhibition of hHexB, Michaelis–Menten kinetics were evaluated using pNP-GlcNAc as a colorimetric substrate. Inhibition constants (Ki) were determined by nonlinear regression analyses by employing the competitive inhibition model (cf. the Experimental section and Supplementary Materials).
(§2) The detailed protocol for the expression of hOGA and the subsequent purification procedure of the recombinant protein have been described in our previous work. The gene construct encoding the full-length human OGA fused to N-terminal His6-tag was kindly provided by Prof. D. Vocadlo (SFU, Burnaby, BC, Canada). Human β-N-acetylhexosaminidase B (hHexB) was expressed in Pichia pastoris, and the extracellularly produced enzyme was isolated according to the procedure described by Krejzová et al..
The inhibitory potency of compounds 5a–f was evaluated against recombinant enzymes hOGA and hHexB. In the case of hOGA inhibition, 4-MU-GlcNAc was used as a substrate at three concentrations (7 µM, 12 µM, and 25 µM) in the reaction mixtures containing 50 mM potassium phosphate buffer (pH 7.5), an inhibitor 5a–f in a final concentration of 0 to 750 nM, and 3 nM hOGA. In all cases, the enzyme and the inhibitors were preincubated at 37 °C, then the reaction was initiated by the addition of the substrate. All reactions were carried out in a fluorescence cuvette (Hellma Analytics, Müllheim, Germany), held in the thermostat cell holder of a Jasco FP-8200 fluorescence spectrophotometer (Easton, MD, USA) equipped with a Xe lamp light source. The excitation of the reactions was performed at […] and emission was detected at […] every 10 s for 10 min. All measurements were performed in triplicates. Initial velocities were determined and the reciprocal of initial velocities was plotted against inhibitor concentrations. The inhibitory mode of the compounds on hOGA was assessed by the Cornish–Bowden method, which involves the plotting of [S]/v0 vs. inhibitor concentrations. […] Inhibition constants (Ki) were determined according to the competitive model of the Dixon method by plotting the reciprocal of initial velocities vs. inhibitor concentrations. The intersection point of the linearly fitted lines gave Ki in nM.

[3] = target: HexA/B; design: method as in PMID 34186233; conditions: enzyme contains two predominant isozymes, Hex A and Hex B; cited from earlier work
[4] = target: T2, hHexB (Homo sapiens, UniProt P07686); experiment: hHexB inhibition, pNP-GlcNAc colorimetric substrate, Michaelis–Menten kinetics; type: biochemical; conditions: recombinant hHexB, pH 5.0, 35 °C
T2 construct: made in house; host or cells: Pichia pastoris
T2 sequence (P07686 122-556): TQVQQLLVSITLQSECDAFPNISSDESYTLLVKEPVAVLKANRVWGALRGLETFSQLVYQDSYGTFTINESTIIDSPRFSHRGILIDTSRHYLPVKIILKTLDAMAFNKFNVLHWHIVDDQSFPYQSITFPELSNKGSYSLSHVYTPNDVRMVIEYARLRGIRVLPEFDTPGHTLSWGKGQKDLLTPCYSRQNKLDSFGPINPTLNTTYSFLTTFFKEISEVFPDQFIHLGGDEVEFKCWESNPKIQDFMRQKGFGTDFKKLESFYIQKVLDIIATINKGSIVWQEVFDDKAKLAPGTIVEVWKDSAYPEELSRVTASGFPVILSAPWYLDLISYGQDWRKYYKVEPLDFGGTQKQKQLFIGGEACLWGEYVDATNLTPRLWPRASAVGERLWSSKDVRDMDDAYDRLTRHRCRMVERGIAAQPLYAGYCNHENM
Method: as §1, §2
In the case of hHexB inhibition, Michaelis–Menten kinetics were evaluated using pNP-GlcNAc as a substrate. The kinetic reactions took place in Eppendorf tubes in a final volume of 400 μL containing 24 nM HexB, pNP-GlcNAc substrate in the range of 0.1–3 mM, and various inhibitor concentrations ranging from 0 to 300 nM in 50 mM citrate-phosphate buffer, pH 5.0. The reactions were incubated at 35 °C and then 50 μL samples were taken every 60 s. Samples were mixed with a quenching solution of 150 μL 0.1 M Na2CO3 and the absorbance of the solutions was measured at 420 nm by a Tecan Sunrise plate reader (Männedorf, Switzerland). All measurements were performed in triplicates. Initial velocities were determined from the data points by linear fit, and then nonlinear regression analyses were performed using the competitive inhibition model to calculate Ki values. GraphPad Prism software was used for the calculations.

[5] = target: HexB; conditions: cited from earlier work

Row | SMILES | Ki [1] | Ki(hHexB)/Ki(hOGA) [2] | Ki [3] | melting point | Ki [4] | Ki [2] | Ki [5]
1 | CC(=O)N[C@H]1C(=NNC(=O)Nc2ccc3ccccc3c2)O[C@H](CO)[C@@H](O)[C@@H]1O [2-acetamido-2-deoxy-D-glucono-1,5-lactone 4-(2-naphthyl)-semicarbazone] | 36 nM | 1.3 | 47 nM |  |  |  | 
2 | CC(=O)N[C@H]1C(=NNS(=O)(=O)c2ccc(C)cc2)O[C@H](CO)[C@@H](O)[C@@H]1O [5a, 2-Acetamido-2-deoxy-D-glucono-1,5-lactone p-Toluenesulfonylhydrazone] |  | 0.27 |  | 165 to 166 °C | 21 ± 2 nM | 78 ± 1 nM | 
3 | CC(=O)N[C@H]1C(=NNS(=O)(=O)c2ccc(C(F)(F)F)cc2)O[C@H](CO)[C@@H](O)[C@@H]1O [5b, 2-Acetamido-2-deoxy-D-glucono-1,5-lactone p-Trifluoromethylbenzenesulfonylhydrazone] |  | 0.21 |  | 175 to 176 °C (dec.) | 48 ± 4 nM | 230 ± 17 nM | 
4 | CC(=O)N[C@H]1C(=NNS(=O)(=O)c2ccc(F)cc2)O[C@H](CO)[C@@H](O)[C@@H]1O [5c, 2-Acetamido-2-deoxy-D-glucono-1,5-lactone p-Fluorobenzenesulfonylhydrazone] |  |  |  | 175 to 177 °C | 45 ± 3 nM | 95 ± 11 nM | 
5 | CC(=O)N[C@H]1C(=NNS(=O)(=O)c2ccc(Cl)cc2)O[C@H](CO)[C@@H](O)[C@@H]1O [5d, 2-Acetamido-2-deoxy-D-glucono-1,5-lactone p-Chlorobenzenesulfonylhydrazone] |  | 0.56 |  | 180 to 182 °C (dec.) | 39 ± 2 nM | 70 ± 3 nM | 
6 | CC(=O)N[C@H]1C(=NNS(=O)(=O)c2ccc3ccccc3c2)O[C@H](CO)[C@@H](O)[C@@H]1O [5e, 2-Acetamido-2-deoxy-D-glucono-1,5-lactone 2-Naphthalenesulfonylhydrazone] |  | 1 |  | 172 to 173 °C | 30 ± 3 nM | ~30 nM and 30 nM | 
7 | CC(=O)N[C@H]1/C(=N/NS(=O)(=O)c2cccc3ccccc23)O[C@H](CO)[C@@H](O)[C@@H]1O [5f, 2-Acetamido-2-deoxy-D-glucono-1,5-lactone 1-Naphthalenesulfonylhydrazone] |  | 0.25 |  | 145 to 147 °C | 6.8 ± 1.8 nM | 27 ± 7 nM | 
8 | CC(=O)N[C@H]1/C(=N/OC(=O)Nc2ccc(Br)cc2)O[C@H](CO)[C@@H](O)[C@@H]1O [I (4-Br-C6H4-)] | 56 nM |  |  |  |  |  | 47 nM
9 | CC(=O)N[C@H]1/C(=N/OC(=O)Nc2ccc(C)cc2)O[C@H](CO)[C@@H](O)[C@@H]1O [I (4-Me-C6H4-)] | 28 nM |  |  |  |  |  | 21 nM
10 | CC(=O)N[C@H]1/C(=N/NC(=O)Nc2ccc(Cl)cc2)O[C@H](CO)[C@@H](O)[C@@H]1O [II (4-Cl-C6H4-)] | 83 nM |  | 170 nM |  |  |  | 
11 | CC(=O)N[C@H]1/C(=N/NC(=O)Nc2ccc(C)cc2)O[C@H](CO)[C@@H](O)[C@@H]1O [II (4-Me-C6H4-)] | 155 nM |  | 332 nM |  |  |  | 
12 | CC(=O)N[C@H]1/C(=N/NC(=O)Nc2ccccc2)O[C@H](CO)[C@@H](O)[C@@H]1O [II (Ph)] | 190 nM |  | 205 nM |  |  |  | 
13 | CC(=O)N[C@H]1/C(=N/OC(=O)Nc2ccccc2)O[C@H](CO)[C@@H](O)[C@@H]1O [PUGNAc] | 46 nM | 0.8 |  |  |  |  | 36 nM
